In patent publication US12415794B2 (Edgewise Therapeutics, Inc., priority 2018, dated 2025) one finds IC50 data, which are given here for 28 compounds.

The target of assay [1] is skeletal myofibrils (myosin ATPase). Kind of assay: Skeletal Myofibril ATPase Assay. In kind it is biochemical. On the procedure:
FIG. 7 depicts the buffer preparation procedures of Buffer A and Buffer B for the skeletal myofibril ATPase assay described in Example 12. Buffers were stored on ice until use.
Example 12: Skeletal Myofibril ATPase Assay
Overview: Myosin ATPase activity is assessed by using a coupled reaction system, in which ADP generated by the myosin ATPase function is coupled to the disappearance of NADH through the pyruvate kinase/lactate dehydrogenase (PK-LDH) system. ATPase activity produces ADP, which is used as a substrate for PK to produce pyruvate and regenerate ATP. The pyruvate is then used as a substrate by LDH to oxidize NADH to NAD+. The rate of the reaction is monitored through the time-dependent disappearance of NADH using absorbance at 340 nm. Inhibition of ATPase activity by the assayed compounds is indicated by a reduced rate of NADH loss, relative to vehicle-treated controls, over the experimental time window. To assess the selectivity of the assayed compounds for skeletal myofibrils, the compounds are counter-screened in cardiac myofibrils.
Materials: The following stock solutions and reagents were used in the Skeletal Myofibril ATPase Assay:
Stock Solutions of pCa buffer. Combine PIPES, CaCl2, and EGTA solutions with 70 mL of water. Adjust pH to 7.0 and bring final volume to 100 mL.
Skeletal Myofibril ATPase Assay Procedure: BSA, ATP, NADH, PEP, and DTT solutions were thawed at room temperature, then transferred to ice. Pellet-frozen myofibrils were transferred with approximately twice the required volume into a sufficiently large tube and capped. Myofibrils were thawed by rolling in a water bath for approximately 15 min at room temperature and cooled on ice. Buffers A and B were prepared by adjusting volumes as necessary for required number of wells and stored on ice. 0.5 μL of the compounds to be assayed were added into wells. 25 μL of Buffer A was dispensed into the wells, followed by 25 μL of Buffer B. The wells were measured for absorbance at 340 nm, using a kinetic protocol in which the wells are read every 1.5-2 min for 45 min. The slope of the data was approximated by subtracting the minimum absorbance value from the maximum value for each well. This was accomplished either in the SoftMax Pro software or in a spreadsheet program such as Excel. Using GraphPad Prism 8.0, the data was normalized by assigning a value of 100% to the 1% DMSO vehicle wells. Typically, a normalized 0% value was simply assigned to a (Max−Min) value of 0. The normalized data was fit to a Four Parameter Logistic sigmoidal equation, constraining the bottom to be 0 or greater. Compounds of Table 1, 2, and 3 were tested and results of the assay appear in Tables 4a-4c. A=IC50 is less than or equal to 10 μM; B=IC50 is greater than 10 μM and less than 100 μM; C=IC50 is greater than 100 μM.

The target of assay [2] is T1, cardiac myofibrils (myosin ATPase).
T1 construct: frozen myofibril pellets obtained from cardiac tissue; from tissue
T1 sequence (P12883 whole entry): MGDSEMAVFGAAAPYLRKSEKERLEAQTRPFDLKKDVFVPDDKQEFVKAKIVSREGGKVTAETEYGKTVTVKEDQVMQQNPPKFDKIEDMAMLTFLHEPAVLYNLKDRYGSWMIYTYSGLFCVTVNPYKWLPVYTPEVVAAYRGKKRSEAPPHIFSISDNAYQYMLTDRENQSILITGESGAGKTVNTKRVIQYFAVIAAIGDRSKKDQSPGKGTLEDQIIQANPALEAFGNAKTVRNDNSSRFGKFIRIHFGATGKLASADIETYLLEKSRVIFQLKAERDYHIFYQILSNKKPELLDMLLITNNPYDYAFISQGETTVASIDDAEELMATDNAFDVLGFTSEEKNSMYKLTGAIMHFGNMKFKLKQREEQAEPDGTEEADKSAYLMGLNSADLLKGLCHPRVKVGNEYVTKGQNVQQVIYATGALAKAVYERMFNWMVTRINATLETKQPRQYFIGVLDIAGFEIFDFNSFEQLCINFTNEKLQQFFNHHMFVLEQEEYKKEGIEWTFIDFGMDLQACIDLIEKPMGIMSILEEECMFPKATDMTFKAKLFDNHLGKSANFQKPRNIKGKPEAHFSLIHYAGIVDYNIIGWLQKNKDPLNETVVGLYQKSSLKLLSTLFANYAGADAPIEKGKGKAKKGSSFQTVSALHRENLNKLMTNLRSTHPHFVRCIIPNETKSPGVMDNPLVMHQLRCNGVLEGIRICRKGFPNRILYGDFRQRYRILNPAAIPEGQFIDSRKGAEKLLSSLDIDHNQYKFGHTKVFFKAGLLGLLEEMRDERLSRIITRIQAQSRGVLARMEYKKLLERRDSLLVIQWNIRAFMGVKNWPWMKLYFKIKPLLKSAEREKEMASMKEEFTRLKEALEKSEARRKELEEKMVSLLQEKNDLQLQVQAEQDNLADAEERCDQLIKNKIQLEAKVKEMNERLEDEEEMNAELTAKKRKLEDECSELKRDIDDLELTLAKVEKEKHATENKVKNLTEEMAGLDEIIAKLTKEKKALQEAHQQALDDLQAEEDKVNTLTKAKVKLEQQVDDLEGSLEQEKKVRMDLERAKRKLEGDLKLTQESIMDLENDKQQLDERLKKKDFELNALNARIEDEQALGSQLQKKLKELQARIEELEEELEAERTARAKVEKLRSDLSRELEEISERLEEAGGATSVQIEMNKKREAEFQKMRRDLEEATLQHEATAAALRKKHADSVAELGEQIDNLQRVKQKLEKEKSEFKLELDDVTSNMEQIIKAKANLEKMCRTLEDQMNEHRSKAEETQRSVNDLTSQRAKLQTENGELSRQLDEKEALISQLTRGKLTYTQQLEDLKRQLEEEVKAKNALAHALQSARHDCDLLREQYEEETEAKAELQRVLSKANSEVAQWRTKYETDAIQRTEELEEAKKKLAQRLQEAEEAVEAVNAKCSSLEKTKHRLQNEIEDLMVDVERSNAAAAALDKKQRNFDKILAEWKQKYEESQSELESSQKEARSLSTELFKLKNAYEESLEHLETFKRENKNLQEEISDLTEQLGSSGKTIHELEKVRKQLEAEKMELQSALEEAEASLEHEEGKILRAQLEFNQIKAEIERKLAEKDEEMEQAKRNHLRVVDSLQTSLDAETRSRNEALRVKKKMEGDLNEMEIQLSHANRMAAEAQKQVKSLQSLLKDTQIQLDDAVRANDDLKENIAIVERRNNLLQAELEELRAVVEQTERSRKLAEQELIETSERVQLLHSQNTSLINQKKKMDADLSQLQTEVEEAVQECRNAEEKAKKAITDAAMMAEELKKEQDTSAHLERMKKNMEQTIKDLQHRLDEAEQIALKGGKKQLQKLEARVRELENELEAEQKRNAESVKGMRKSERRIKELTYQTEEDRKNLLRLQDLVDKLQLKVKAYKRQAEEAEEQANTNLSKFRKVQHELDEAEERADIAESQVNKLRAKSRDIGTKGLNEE
T1 sequence (P08590 whole entry partner): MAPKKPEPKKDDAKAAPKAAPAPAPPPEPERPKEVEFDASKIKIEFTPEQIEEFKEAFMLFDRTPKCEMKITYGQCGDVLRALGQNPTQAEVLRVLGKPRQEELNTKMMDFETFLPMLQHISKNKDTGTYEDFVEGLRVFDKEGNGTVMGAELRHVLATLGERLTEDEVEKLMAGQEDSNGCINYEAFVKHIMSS
T1 sequence (P10916 whole entry partner): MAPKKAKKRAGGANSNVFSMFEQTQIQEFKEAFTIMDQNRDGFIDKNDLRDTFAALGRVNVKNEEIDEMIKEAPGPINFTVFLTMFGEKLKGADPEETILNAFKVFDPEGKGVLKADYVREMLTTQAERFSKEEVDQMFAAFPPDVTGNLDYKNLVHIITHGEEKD
Kind of assay: Cardiac Myofibril ATPase Assay (counter screen). In kind it is biochemical. Conditions: myofibrils 1.0 mg/mL, KCl omitted. Summed up:
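Frozen cardiac myofibrils at 1.0 mg/mL final, KCl omitted, in a PK-LDH coupled ATPase assay; ADP production tracked as NADH loss by absorbance at 340 nm. Inhibition taken as reduced rate relative to vehicle controls, with IC50 derived.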

Where only a bound is given, the exact number is not on record here.

Consider `COc1ccccc1NC(=O)Cn1nc(-c2ccccc2)ccc1=O` [IIIc-58, N-(2-methoxyphenyl)-2-(6-oxo-3-phenylpyridazin-1(6H)-yl)acetamide], for which the figures for the IC50 in assay [1] (Table 4C) and in assay [2] (Table 5C) were 10 to 100 µM and over 100 µM, respectively.

Consider `CCNC(=O)Cn1nc(-c2ccc(NC(C)(C)C)nc2)ccc1=O` [Compound I-53, 2-(3-(6-(tert-butylamino)pyridin-3-yl)-6-oxopyridazin-1(6H)-yl)-N-ethylacetamide], for which the IC50 in assay [1] (Table 4A) is under 10 µM; in assay [2] (Table 5A), over 100 µM.

With `CCNC(=O)Cn1nc(-c2ccc(OC(F)F)nc2)ccc1=O` [Compound I-7, 2-(3-(6-(difluoromethoxy)pyridin-3-yl)-6-oxopyridazin-1(6H)-yl)-N-ethylacetamide], the half-maximal inhibitory concentration (IC50) in assay [1] (Table 4A) is under 10 µM; in assay [2] (Table 5A), over 100 µM.

Consider `COc1ccc(-c2ccc(=O)n(CC(=O)NC3CC3)n2)c(F)c1` [IIIb-58, N-cyclopropyl-2-(3-(2-fluoro-4-methoxyphenyl)-6-oxopyridazin-1(6H)-yl)acetamide], for which the 50% inhibitory concentration (IC50) in assay [1] (Table 4C) and in assay [2] (Table 5C) was over 100 µM throughout.

As for `CC(C)CNC(=O)Cn1nc(-c2ccc(OC(F)F)cc2)ccc1=O` [II-13, 2-(3-(4-(difluoromethoxy)phenyl)-6-oxopyridazin-1(6H)-yl)-N-isobutylacetamide], the 50% inhibitory concentration (IC50) in assay [1] (Table 4B) is 10 to 100 µM; in assay [2] (Table 5B), over 100 µM.

For the compound `CCNC(=O)Cn1nc(-c2ccc(Oc3ccc(F)cc3)nc2)ccc1=O` [Compound I-21, N-ethyl-2-(3-(6-(4-fluorophenoxy)pyridin-3-yl)-6-oxopyridazin-1(6H)-yl)acetamide], the IC50 in assay [1] (Table 4A) was 10 to 100 µM; in assay [2] (Table 5A), over 100 µM.

As to `COc1ccc(-c2ccc(=O)n(CC(=O)NCCC3=CCCCC3)n2)cc1` [IIIb-14, N-(2-(cyclohex-1-en-1-yl)ethyl)-2-(3-(4-methoxyphenyl)-6-oxopyridazin-1(6H)-yl)acetamide], the IC50 was under 10 µM in assay [1] (Table 4C) and over 100 µM in assay [2] (Table 5C).

Regarding `O=C(Cn1nc(-c2ccc(OC(F)F)cc2)ccc1=O)NCc1ccccc1Cl` [II-3, N-(2-chlorobenzyl)-2-(3-(4-(difluoromethoxy)phenyl)-6-oxopyridazin-1(6H)-yl)acetamide], the concentration for half-maximal inhibition (IC50) in assay [1] (Table 4B) is under 10 µM; in assay [2] (Table 5B) it was over 100 µM.

Regarding `CCOc1ccc(-c2ccc(=O)n(CC(=O)NC(C)C)n2)cc1` [IIIa-6, 2-(3-(4-ethoxyphenyl)-6-oxopyridazin-1(6H)-yl)-N-isopropylacetamide], the results for the IC50 in assay [1] (Table 4C) and in assay [2] (Table 5C) were under 10 µM and over 100 µM, respectively.

For `CCNC(=O)Cn1nc(-c2cnc(NC34CC(F)(C3)C4)nc2)ccc1=O` [Compound I-57, N-ethyl-2-(3-(2-((3-fluorobicyclo[1.1.1]pentan-1-yl)amino)pyrimidin-5-yl)-6-oxopyridazin-1(6H)-yl)acetamide], the figures for the IC50 in assay [1] (Table 4A) and in assay [2] (Table 5A) were under 10 µM and over 100 µM, respectively.

On to `COc1ccc(-c2ccc(=O)n(CC(=O)N(C)c3ccccc3)n2)cc1` [IIIc-7, 2-(3-(4-methoxyphenyl)-6-oxopyridazin-1(6H)-yl)-N-methyl-N-phenylacetamide], for which the IC50 in assay [1] (Table 4C) was 10 to 100 µM; in assay [2] (Table 5C), over 100 µM.

Regarding `CC[C@H](C)NC(=O)Cn1nc(-c2ccc(Cl)cc2)ccc1=O` [IIIc-30, (S)-N-(sec-butyl)-2-(3-(4-chlorophenyl)-6-oxopyridazin-1(6H)-yl)acetamide], the 50% inhibitory concentration (IC50) is 10 to 100 µM in assay [1] (Table 4C) and over 100 µM in assay [2] (Table 5C).

On to `COc1ccc(CNC(=O)Cn2nc(-c3ccc(OC)cc3)ccc2=O)cc1` [IIIb-34, N-(4-methoxybenzyl)-2-(3-(4-methoxyphenyl)-6-oxopyridazin-1(6H)-yl)acetamide], for which the half-maximal inhibitory concentration (IC50) was 10 to 100 µM in assay [1] (Table 4C) and over 100 µM in assay [2] (Table 5C).

Turning to `COc1ccc(-c2ccc(=O)n(CC(=O)NC3Cc4ccccc4C3)n2)cc1` [IIIb-8, N-(2,3-dihydro-1H-inden-2-yl)-2-(3-(4-methoxyphenyl)-6-oxopyridazin-1(6H)-yl)acetamide], the IC50 in assay [1] (Table 4C) was under 10 µM; in assay [2] (Table 5C) it was over 100 µM.

Consider `COc1ccc(-c2ccc(=O)n(CC(=O)NC(C)c3ccccc3Cl)n2)cc1` (centres unmarked) [IIIa-25, N-(1-(2-chlorophenyl)ethyl)-2-(3-(4-methoxyphenyl)-6-oxopyridazin-1(6H)-yl)acetamide], for which the IC50 in assay [1] (Table 4C) was 10 to 100 µM; in assay [2] (Table 5C), over 100 µM.

With `COc1ccc(-c2ccc(=O)n(CC(=O)NCc3ccccc3Cl)n2)cc1OC` [IIIb-40, N-(2-chlorobenzyl)-2-(3-(3,4-dimethoxyphenyl)-6-oxopyridazin-1(6H)-yl)acetamide], the IC50 in assay [1] (Table 4C) and in assay [2] (Table 5C) was over 100 µM each time.

Take `CCNC(=O)Cn1nc(-c2ccc(OCCN(C)C)nc2)ccc1=O` [Compound I-26, 2-(3-(6-(2-(dimethylamino)ethoxy)pyridin-3-yl)-6-oxopyridazin-1(6H)-yl)-N-ethylacetamide]: the half-maximal inhibitory concentration (IC50) in assay [1] (Table 4A) and in assay [2] (Table 5A) was over 100 µM in each case.

For `COc1ccc(-c2ccc(=O)n(CC(=O)NCc3ccc(Cl)cc3)n2)cc1` [IIIa-17, N-(4-chlorobenzyl)-2-(3-(4-methoxyphenyl)-6-oxopyridazin-1(6H)-yl)acetamide], the results for the IC50 in assay [1] (Table 4C) and in assay [2] (Table 5C) were under 10 µM and over 100 µM, respectively.

Turning to `COc1ccc(NC(=O)Cn2nc(-c3ccc(F)cc3)ccc2=O)c(OC)c1` [IIIc-31, N-(2,4-dimethoxyphenyl)-2-(3-(4-fluorophenyl)-6-oxopyridazin-1(6H)-yl)acetamide], the IC50 is 10 to 100 µM in assay [1] (Table 4C) and over 100 µM in assay [2] (Table 5C).

As for `COc1ccc(-c2ccc(=O)n(CC(=O)NC3CCCCC3)n2)c(F)c1` [IIIb-60, N-cyclohexyl-2-(3-(2-fluoro-4-methoxyphenyl)-6-oxopyridazin-1(6H)-yl)acetamide], the IC50 in assay [1] (Table 4C) and in assay [2] (Table 5C) was over 100 µM in each case.

For the compound `CCNC(=O)Cn1nc(-c2ccc(NC34CC(C)(C3)C4)nc2)ccc1=O` [Compound I-60, N-ethyl-2-(3-(6-((3-methylbicyclo[1.1.1]pentan-1-yl)amino)pyridin-3-yl)-6-oxopyridazin-1(6H)-yl)acetamide], the IC50 in assay [1] (Table 4A) was under 10 µM; in assay [2] (Table 5A), over 100 µM.

Regarding `CCNC(=O)Cn1nc(-c2ccc(OC3COC3)nc2)ccc1=O` [Compound I-25, N-ethyl-2-(3-(6-(oxetan-3-yloxy)pyridin-3-yl)-6-oxopyridazin-1(6H)-yl)acetamide], the half-inhibitory concentration (IC50) in assay [1] (Table 4A) and in assay [2] (Table 5A) was over 100 µM each time.

Take `CCNC(=O)Cn1nc(-c2ccc(OCC3(C)COC3)nc2)ccc1=O` [Compound I-24, N-ethyl-2-(3-(6-((3-methyloxetan-3-yl)methoxy)pyridin-3-yl)-6-oxopyridazin-1(6H)-yl)acetamide]: the half-inhibitory concentration (IC50) in assay [1] (Table 4A) was 10 to 100 µM; in assay [2] (Table 5A) it was over 100 µM.

Turning to `COc1ccc(-c2ccc(=O)n(CC(=O)Nc3ccc4c(c3)OCCO4)n2)c(F)c1` [IIIb-15, N-(2,3-dihydrobenzo[b][1,4]dioxin-6-yl)-2-(3-(2-fluoro-4-methoxyphenyl)-6-oxopyridazin-1(6H)-yl)acetamide], the IC50 in assay [1] (Table 4C) was under 10 µM; in assay [2] (Table 5C), over 100 µM.

On to “N-cyclobutyl-2-[3-[2-(2-methylpropoxy)pyrimidin-5-yl]-6-oxopyridazin-1-yl]acetamide [Compound I-79]”, for which the IC50 in assay [1] (Table 4A) and in assay [2] (Table 5A) was over 100 µM each time.

Turning to `CCC(C)(C)NC(=O)Cn1nc(-c2ccc(OC(F)F)nc2)ccc1=O` [Compound I-20, 2-(3-(6-(difluoromethoxy)pyridin-3-yl)-6-oxopyridazin-1(6H)-yl)-N-(tert-pentyl)acetamide], the 50% inhibitory concentration (IC50) in assay [1] (Table 4A) is 10 to 100 µM; in assay [2] (Table 5A) it was over 100 µM.

Turning to `CCNC(=O)Cn1nc(-c2ccc(N3CC4(C3)CS(=O)(=O)C4)nc2)ccc1=O` [Compound I-32, 2-(3-(6-(2,2-dioxido-2-thia-6-azaspiro[3.3]heptan-6-yl)pyridin-3-yl)-6-oxopyridazin-1(6H)-yl)-N-ethylacetamide], the IC50 in assay [1] (Table 4A) and in assay [2] (Table 5A) was over 100 µM each time.

Turning to `O=C(Cn1nc(-c2ccc(OCC(F)(F)F)cc2)ccc1=O)NCc1ccncc1Cl` [II-25, N-((3-chloropyridin-4-yl)methyl)-2-(6-oxo-3-(4-(2,2,2-trifluoroethoxy)phenyl)pyridazin-1(6H)-yl)acetamide], the 50% inhibitory concentration (IC50) in assay [1] (Table 4B) and in assay [2] (Table 5B) was over 100 µM each time.
